Results taken from patent US20160030416A1, “METHODS OF TREATING B2-BRADYKININ RECEPTOR MEDIATED ANGIOEDEMA” (SHIRE HUMAN GENETIC THERAPIES, INC., priority 2013, published 2016).
Values after ≈ are worked out from the molar mass of the structure shown.

How the values were obtained:
plasma extravasation = assay: Plasma extravasation (Evans blue in bladder), IV bolus, wild-type mice; assay type: in vivo, wild-type (WT) C57/BL6 male mice; conditions: for Evans blue (EB) in the bladder: controls 0.7927
Text: In vivo experiments in both wild-type (WT) C57BL/6J mice and C1-inhibited knock out (C1 INH KO) mice measured pharmacodynamic efficacy by the ability of CFMQ to block plasma extravasation, which is causative to edema, the most important symptom requiring treatment in HAE subjects. This plasma extravasation model has been used extensively in the literature to investigate the efficacy of bradykinin receptor antagonists. (Han et al., “Increased vascular permeability in C1 inhibitor-deficient mice mediated by the bradykinin type 2 receptor,” J Clin Invest, 2002 April; 109(8): 1057-1063.)
The uptake and effective blocking of plasma extravasation of CFMQ was examined following IV (intravenous) bolus administration in wild-type (WT) C57/BL6 male mice (n=4/dose group). Mice received CFMQ (HGT3711) (2 μL/g) at 1.0 μg/kg, 100 μg/kg, and/or 6 mg/kg. Following CFMQ administration and prior to the terminal time point, mice received an IV injection of Evans blue (EB) dye (30 mg/kg) and were sacrificed. The bladder was removed, dried and weighed and extracted in formamide (1.0 mL). EB concentration in the formamide extract was determined spectrophotometrically and EB content was calculated as μg EB per milligram of tissue weight. Efficacy was determined by inhibiting the accumulation of EB in the bladder.
CFMQ doses of 0.001, 0.05, 0.1, 0.25, 0.5, 1.0, and or 3.0 mg/kg were administered as IV bolus injections to WT mice (n=8/dose group).

[1] = Plasma kinetics, intravenous, beagle dogs; assay type: in vivo, female beagle dogs; conditions: IV 1 mg/kg
Procedure: CFMQ (HGT3711) was administered to fasted female beagle dogs by a single intravenous injection at 1.0 mg/kg, formulated in 100% PEG200 (Table 10). Blood samples were taken via jugular vein puncture prior to administration and at 0.083 (5 min), 0.25 (15 min), 0.50 (30 min), 1, 4, 8 and 24 hours post dose. Plasma concentrations of CFMQ (HGT3711) were determined by LC-MS/MS and concentrations below the limit of quantitation (1.0 ng/mL) were assigned a value of zero for pharmacokinetic analysis. Nominal dosing concentrations were used in all calculations.

[2] = Physicochemical properties of CFMQ
Procedure: The physicochemical properties of 1-((4-Chloro-3-(((4-(4-fluoro-1H-pyrazol-1-yl)-2-methylquinolin-8-yl)oxy)methyl)-6-methylpyridin-2-yl)methyl)-2-oxo-1,2-dihydropyridine-3-carbonitrile (CFMQ) were determined using standard methods. CFMQ was a free base with a molecular weight of 514.9 Da and was a nonhygroscopic, crystalline powder with a melting point of about 214° C.

[3] = In vitro microsomal stability, dog; assay type: in vitro ADME; conditions: Dog (Beagle), Male
Procedure: In vitro metabolic stability studies were performed to determine hepatic stability in vivo. CFMQ was incubated in liver microsomal preparations from mouse, rat, dog, mini-pig, and humans, as well as an additional study with monkey and human. CFMQ was incubated with human and animal liver microsomes at 0.3 mg/mL at 37° C. for 30 or 60 minutes. Additional reference compounds were incubated as controls. Following incubation, samples were analyzed by HPLC-MS/MS.

[4] = female, beagle, dog, plasma, extrapolated to t = 0

- clearance as % of liver blood flow in dog (1.85 L/hr/kg) [1]: approximately 14%
- AUC(0-inf) ([1]; female, beagle, dog, plasma): 5.27 µg·h/mL
- AUC(0-t) ([1]; female, beagle, dog, plasma): 5.16 µg·h/mL
- clearance ([1]; female, beagle, dog, plasma): 0.25 L/h/kg
- half-life ([1]; female, beagle, dog, plasma): 2.69 h
- concentration at 0 hr ([1]; female, beagle, dog, plasma, 0 hr, read-out: Average Concentration of HGT3711): 0 µg/mL
- concentration at 0.083 hr ([1]; female, beagle, dog, plasma, 0.083 hr, read-out: Average Concentration of HGT3711): 1.84 µg/mL
- concentration at 0.25 hr ([1]; female, beagle, dog, plasma, 0.25 hr, read-out: Average Concentration of HGT3711): 1.32 µg/mL
- concentration at 0.5 hr ([1]; female, beagle, dog, plasma, 0.50 hr, read-out: Average Concentration of HGT3711): 1.07 µg/mL
- concentration at 1 hr ([1]; female, beagle, dog, plasma, 1.0 hr, read-out: Average Concentration of HGT3711): 0.717 µg/mL
- concentration at 4 hr ([1]; female, beagle, dog, plasma, 4.0 hr, read-out: Average Concentration of HGT3711): 0.377 µg/mL
- concentration at 8 hr ([1]; female, beagle, dog, plasma, 8.0 hr, read-out: Average Concentration of HGT3711): 0.18 µg/mL
- C0 [1, 4]: 2.18 µg/mL
- Tmax [1, 4]: 0 h
- Vd ([1]; female, beagle, dog, plasma, read-out: Vss): 0.75 L/kg
- pKa1 [2]: 3.95
- pKa2 [2]: 1.70
- solubility in acidic environments ([2]; acidic environments): greatly enhanced
- solubility in aqueous medium ([2]; aqueous medium): slight solubility
- logD ([2]; pH = 7.4): 3.47
- solubility ([2]; phosphate buffered saline (PBS), aqueous buffer): 33 µM (≈ 17 µg/mL)
- % Remaining [30 minutes] ([3]; 30 minutes): 66%
- % Remaining [60 minutes] ([3]; 60 minutes): 45%
SMILES: Cc1cc(Cl)c(COc2cccc3c(-n4cc(F)cn4)cc(C)nc23)c(Cn2cccc(C#N)c2=O)n1 [CFMQ, 1-((4-Chloro-3-(((4-(4-fluoro-1H-pyrazol-1-yl)-2-methylquinolin-8-yl)oxy)methyl)-6-methylpyridin-2-yl)methyl)-2-oxo-1,2-dihydropyridine-3-carbonitrile]
- Evans blue (EB) in the bladder (plasma extravasation; IV bolus 1.0 μg/kg): 0.7602 EB mg/kg tissue
- Evans blue (EB) in the bladder (plasma extravasation; IV bolus 6 mg/kg): 0.0701 EB mg/kg tissue
- inhibition of plasma extravasation vs vehicle (plasma extravasation; IV bolus 0.5, 1.0, and or 3.0 mg/kg, n=8): significant inhibition of plasma extravasation
- inhibition of extravasation (plasma extravasation; IV bolus 1.0 and or 100 μg/kg): did not inhibit extravasation
- ED50 (plasma extravasation; Mus musculus, intravenous, WT model, read-out: effective dose (ED50), plasma extravasation): 0.46 mg/kg
- block of plasma extravasation (plasma extravasation; intravenous, high doses (500 μg/kg)): blocked plasma extravasation completely
